# Source: patent US11052092B2, “N-{[2-(piperidin-1-yl)phenyl](phenyl)methyl}-2-(3-oxo-3,4-dihydro-2H-1,4-benzoxazin-7-yl)acetamide derivatives and related compounds as ROR-gamma modulators for treating autoimmune diseases” (Genfit, priority 2017, dated 2021)
# Several values for one entry are separate records, joined by “and”; a condition that tells them apart may be missing. Equal values may be shown once.
# Assays:
# [1] = molecular target: T1, RORγt ligand-binding domain (RORγt-LBD) (Homo sapiens, UniProt P51449); assay: Time-resolved FRET (TR-FRET) RORγt coactivator assay; details: GST-RORγ-LBD, biotinylated RIP140 peptide, 2 hours at room temperature
# T1 construct: 20 nM recombinantly expressed RORγ-LBD fused to GST
# T1 sequence (P51449 269-508 limits assumed): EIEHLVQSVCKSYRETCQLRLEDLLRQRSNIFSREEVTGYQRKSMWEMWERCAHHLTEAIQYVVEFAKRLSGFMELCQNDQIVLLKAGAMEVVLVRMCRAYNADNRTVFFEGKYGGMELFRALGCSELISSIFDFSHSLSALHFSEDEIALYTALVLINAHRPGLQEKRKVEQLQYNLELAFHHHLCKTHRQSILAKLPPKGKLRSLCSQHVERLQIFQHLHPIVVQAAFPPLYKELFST
# Excerpt: Time-resolved FRET (TR-FRET) RORγt coactivator assay was used to identify RORγ modulator compounds with ligand-dependent coactivator displacement. The assay uses a d2-labeled anti-GST antibody, synthetic N-terminally biotinylated peptide which is derived from nuclear receptor coactivator protein RIP140, and a RORγt ligand-binding domain (RORγt-LBD) that is tagged with glutathione-S-transferase (GST). The influence of compounds on the RORγ-peptide interaction relies on the binding dependent energy transfer from a donor to an acceptor fluorophor attached to the binding partner of interest. […] For reduction of background from compound fluorescence, TR-FRET method makes use of generic fluorophore labels and time resolved detection.
# The assays were done in a final volume of 20 μl in a 384 well plate in a CHAPS buffer (2 mM CHAPS; 1 mM DTT, 2 mM EDTA; 0.1% BSA), containing 20 nM recombinantly expressed RORγ-LBD fused to GST, 30 nM N-terminally biotinylated peptide, 1 nM streptavidin-terbium conjugate and 20 nM d2 labeled-anti-GST. Test compounds were diluted using 10 mM stock solution. The range of the final compound concentrations used in this test was from 0.3 nM to 30 μM (logarithmic scale). DMSO content of the samples was kept at 1%. The assay was equilibrated for 2 hours in the dark at room temperature in 384 well plates (Falcon). The signal was detected by an Ultra384 reader (TECAN). […] Compounds that promote coactivator displacement induce a concentration-dependent decrease in time-resolved fluorescent signal. Data were collected and analyzed using GraphPad Prism software (GraphPad Software V5.02, San Diego Calif. USA). IC50 in μM and Emax in % were reported for each compound.
# [2] = tested on: Murine EL-4 lymphoma cell line overexpressing human RORγt; assay: IL-17 secretion from EL4 murine lymphoma; assay type: cell-based; details: Mus musculus; human RORγt-transfected EL4 cells, PMA (10 ng/mL) and ionomycin (1 μM), 24 h; read-out: IC50, IL-17 secretion inhibition
# Protocol: Murine EL-4 lymphoma cell line overexpressing human RORγt was used in this functional assay to assess compound ability to inhibit IL-17 cytokine secretion.
# EL-4 cells are maintained in a standard culture medium RPMI supplemented with 10% fetal calf serum, 1% sodium pyruvate, 1% essential amino acids and 1% antibiotics at 37° C. in a humidified atmosphere of 5% CO02 and 95% air. Culture medium was changed every 2 days. EL4 cells were transfected with a plasmid encoding hRORγt (sequence identical to published sequence NM 001001523). […] Briefly, 1 μg of DNA/1 million cells was served to transfect EL-4 cells. Cell/DNA suspension was transferred into certified cuvette and the electroporation of RORγt plasmid was carried out using appropriate Nucleofector® program.
# Cells were seeded in 96 well plates at a density of 150000 cells/I well then treated with compounds of this invention at indicated concentrations and incubated for 24 hours at 37° C. in a humidified atmosphere of 5% C02 and 95% air. EL-4 cells were pretreated with test compounds (RORγ modulators) and stimulated with PMA (10 ng/mL) and ionomycin (1 μM final concentration) in the presence of test compound concentrations for additional 24 h at 37° C. in a humidified atmosphere of 5% C02 and 95% air. Subsequently, supernatants were collected (after centrifugation at 300 g for 10 minutes) to determine the concentrations of IL-17 by HTRF (CisBio, France) or ELISA (R&D Systems Europe) according to the manufacturer's protocols.
# human RORγt = molecular target: T2, human RORγt (Homo sapiens, UniProt P51449); assay: RORE Luciferase/RORγt transactivation assay; assay type: cell-based; details: COS-7 cells transfected with human IL-17 promoter luciferase reporter and RORγt plasmid; 20 h with compound; read-out: IC50, RORγt activity inhibition
# T2 construct: the full-length cDNA of human RORγt; expressed in transfected cells; host or cells: COS-7 (monkey kidney)
# T2 sequence (P51449 1-497 isoform P51449-2): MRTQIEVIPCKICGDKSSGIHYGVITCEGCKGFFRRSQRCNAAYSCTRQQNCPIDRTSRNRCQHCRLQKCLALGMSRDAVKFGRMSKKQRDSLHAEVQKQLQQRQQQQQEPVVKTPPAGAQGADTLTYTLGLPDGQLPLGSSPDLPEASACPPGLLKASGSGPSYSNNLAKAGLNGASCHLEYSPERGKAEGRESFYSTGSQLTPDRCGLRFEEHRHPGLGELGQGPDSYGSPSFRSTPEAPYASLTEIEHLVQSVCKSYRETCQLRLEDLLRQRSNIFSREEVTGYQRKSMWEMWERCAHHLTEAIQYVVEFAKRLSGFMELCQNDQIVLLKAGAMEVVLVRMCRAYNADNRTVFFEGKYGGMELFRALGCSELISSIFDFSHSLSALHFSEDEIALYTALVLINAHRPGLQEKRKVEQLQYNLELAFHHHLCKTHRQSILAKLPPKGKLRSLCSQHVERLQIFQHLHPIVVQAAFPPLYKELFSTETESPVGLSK
# Procedure, shortened: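 Transactivation read-out: luminescence (Steady-Glo, 30 min at room temperature) from COS-7 cells carrying a RORγt expression plasmid plus a 4.3 kb IL-17 promoter luciferase reporter. Compound exposure was in serum-free DMEM with 0.3% DMSO final. Reported values are IC50 (μM) and Emax (%).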
SMILES,IC50 [1],IC50 [2],IC50 (human RORγt),melting point
"Cc1ccc(C(NC(=O)Cc2ccc3c(c2)OCC(=O)N3)c2ccccc2)c(N2CCCCC2)c1 (stereo not drawn) [Cpd. 1, N-{[4-methyl-2-(piperidin-1-yl)phenyl](phenyl)methyl}-2-(3-oxo-3,4-dihydro-2H-1,4-benzoxazin-7-yl)acetamide]",100 to 1000 nM,100 to 1000 nM,100 to 1000 nM,–
"Cc1ccc(C(NC(=O)Cc2ccc3c(c2)OCC(=O)N3)c2ccccc2)c(N2CCOCC2)c1 (stereo not drawn) [Cpd. 2, N-{[4-methyl-2-(morpholin-4-yl)phenyl](phenyl)methyl}-2-(3-oxo-3,4-dihydro-2H-1,4-benzoxazin-7-yl)acetamide]",10 to 100 nM,> 10000 nM,1000 to 10000 nM,–
"O=C1COc2cc(CC(=O)NC(c3ccccc3)c3ccccc3N3CCCCC3)ccc2N1 (stereo not drawn) [Cpd. 3, 2-(3-oxo-3,4-dihydro-2H-1,4-benzoxazin-7-yl)-N-{phenyl[2-(piperidin-1-yl)phenyl]methyl}acetamide]",100 to 1000 nM,1000 to 10000 nM,1000 to 10000 nM,–
"COc1ccc(C(NC(=O)Cc2ccc3c(c2)OCC(=O)N3)c2ccccc2)c(N2CCCCC2)c1 (stereo not drawn) [Cpd. 4, N-{[4-methoxy-2-(piperidin-1-yl)phenyl](phenyl)methyl}-2-(3-oxo-3,4-dihydro-2H-1,4-benzoxazin-7-yl)acetamide]",10 to 100 nM,100 to 1000 nM,100 to 1000 nM,–
"O=C1COc2cc(CC(=O)NC(c3ccccc3)c3ccccc3N3CCCC3)ccc2N1 (stereo not drawn) [Cpd. 5, 2-(3-oxo-3,4-dihydro-2H-1,4-benzoxazin-7-yl)-N-{phenyl[2-(pyrrolidin-1-yl)phenyl]methyl}acetamide]",10 to 100 nM,> 10000 nM,1000 to 10000 nM,–
"Cc1ccc(C(NC(=O)Cc2ccc3[nH]c(=O)cc(C)c3c2)c2ccccc2)c(N2CCCCC2)c1 (stereo not drawn) [Cpd. 11, N-{[4-methyl-2-(piperidin-1-yl)phenyl](phenyl)methyl}-2-(4-methyl-2-oxo-1,2-dihydroquinolin-6-yl)acetamide]",100 to 1000 nM,1000 to 10000 nM,1000 to 10000 nM,–
"Cc1ccc(C(NC(=O)Cc2ccc3c(c2)CC(=O)N3)c2ccccc2)c(N2CCCCC2)c1 (stereo not drawn) [Cpd. 16, N-{[4-methyl-2-(piperidin-1-yl)phenyl](phenyl)methyl}-2-(2-oxo-2,3-dihydro-1H-indol-5-yl)acetamide]",10 to 100 nM,100 to 1000 nM,100 to 1000 nM and 10 to 100 nM,–
"Cc1ccc(C(NC(=O)Cc2ccc3c(c2)C(=O)C(=O)N3)c2ccc(C)o2)c(N2CCCCC2)c1 (stereo not drawn) [Cpd. 23, 2-(2,3-dioxo-2,3-dihydro-1H-indol-5-yl)-N-{[4-methyl-2-(piperidin-1-yl)phenyl](5-methylfuran-2-yl)methyl}acetamide]",100 to 1000 nM,100 to 1000 nM,100 to 1000 nM,–
"Cc1ccc(C(NC(=O)Cc2ccc3c(c2)OC(C)(C)C(=O)N3)c2ccc(C)o2)c(N2CCCCC2)c1 (stereo not drawn) [Cpd. 25, 2-(2,2-dimethyl-3-oxo-3,4-dihydro-2H-1,4-benzoxazin-7-yl)-N-{[4-methyl-2-(piperidin-1-yl)phenyl](5-methylfuran-2-yl)methyl}acetamide]",100 to 1000 nM,1000 to 10000 nM,100 to 1000 nM,–
"Cc1ccc(C(NC(=O)Cc2ccc3c(c2)CS(=O)(=O)N3)c2ccc(C)o2)c(N2CCCCC2)c1 (stereo not drawn) [Cpd. 27, 2-(2,2-dioxo-1,3-dihydro-2,1-benzothiazol-5-yl)-N-{[4-methyl-2-(piperidin-1-yl)phenyl](5-methylfuran-2-yl)methyl}acetamide]",< 10 nM,100 to 1000 nM,10 to 100 nM,–
"Cc1ccc(C(NC(=O)Cc2ccc3c(c2)C(=Cc2cnc(N)s2)C(=O)N3)c2ccc(C)o2)c(N2CCCCC2)c1 (stereo not drawn) [Cpd. 44, 2-{3-[(2-amino-1,3-thiazol-5-yl)methylidene]-2-oxo-2,3-dihydro-1H-indol-5-yl}-N-{[4-methyl-2-(piperidin-1-yl)phenyl](5-methylfuran-2-yl)methyl}acetamide]",100 to 1000 nM,1000 to 10000 nM,100 to 1000 nM,–
"Cc1ccc(C(NC(=O)Cc2ccc3c(c2)CCC3O)c2ccc(C)o2)c(N2CCCCC2)c1 (stereo not drawn) [Cpd. 52, 2-(1-hydroxy-2,3-dihydro-1H-inden-5-yl)-N-{[4-methyl-2-(piperidin-1-yl)phenyl](5-methylfuran-2-yl)methyl}acetamide]",< 10 nM,100 to 1000 nM,10 to 100 nM,–
"Cc1ccc(C(NC(=O)Cc2ccc3c(c2)C(O)C(=O)N3C)c2ccc(C)o2)c(N2CCCCC2)c1 (stereo not drawn) [Cpd. 53, 2-(3-hydroxy-1-methyl-2-oxo-2,3-dihydro-1H-indol-5-yl)-N-{[4-methyl-2-(piperidin-1-yl)phenyl](5-methylfuran-2-yl)methyl}acetamide]",< 10 nM,100 to 1000 nM,10 to 100 nM,–
"Cc1ccc(C(NC(=O)C2(c3ccc4c(c3)OCC(=O)N4)CC2)c2ccc(C)o2)c(C)c1 (stereo not drawn) [Cpd. 59, N-[(2,4-dimethylphenyl)(5-methylfuran-2-yl)methyl]-1-(3-oxo-3,4-dihydro-2H-1,4-benzoxazin-7-yl)cyclopropane-1-carboxamide]",< 10 nM,< 100 nM,< 10 nM,–
"Cc1ccc(C(NC(=O)C2(c3ccc4[nH]cc(CCO)c4c3)CC2)c2ccc(C)o2)c(C)c1 (stereo not drawn) [Cpd. 60, N-[(2,4-dimethylphenyl)(5-methylfuran-2-yl)methyl]-1-[3-(2-hydroxyethyl)-1H-indol-5-yl]cyclopropane-1-carboxamide]",< 10 nM,< 100 nM,< 10 nM,–
"Cc1ccc(C(NC(=O)Cc2ccc3c(ccn3CCC(=O)O)c2)c2ccc(C)o2)c(C)c1 (stereo not drawn) [Cpd. 101, 3-[5-({[(2,4-dimethylphenyl)(5-methylfuran-2-yl)methyl]carbamoyl}methyl)-1H-indol-1-yl]propanoic acid]",10 to 100 nM,–,100 to 1000 nM,65 °C
"Cc1ccc(C(NC(=O)Cc2ccc3c(ccn3CCC(=O)O)c2)c2ccc(C)o2)c(Br)c1 (stereo not drawn) [Cpd. 102, 3-[5-({[(2-bromo-4-methylphenyl)(5-methylfuran-2-yl)methyl]carbamoyl}methyl)-1H-indol-1-yl]propanoic acid]",10 to 100 nM,–,100 to 1000 nM,70 °C
